Laboratory results from patent US4554355A, “Heterocyclic compounds as antiallergic agents” (American Home Products Corporation, priority 1984, dated 1985).
Where two headings read alike, the source gives them in different places.

Experiments:
[1] = test system: synthesis of 5-HETE and LTB4 by rat glycogen-elicited polymorphonuclear leukocytes; experiment: inhibition of the synthesis of 5-HETE and LTB4 by rat glycogen-elicited polymorphonuclear leukocytes; assay type: cell-based, rat (female Wistar); settings: rat PMN, A23187 10 μM; for IC50: Leukocyte, 10 min preincubation
Method: This is especially true with respect to 5,12-diHETE, which is also denoted as LTB4 [see Ford-Hitchinson, J. Roy. Soc. Med., 74, 831 (1981)]. The assay of this Example measures the ability of the compounds of the invention to inhibit the synthesis of 5-HETE and LTB4 by rat glycogen-elicited polymorphonuclear leukocytes.
The assay is carried out as follows:
Peritoneal PMN are obtained from female Wistar rats (150-250 g) that received an i.p. injection of 6% glycogen (10 ml). After 24 hours, rats are killed by CO2 asphyxiation and peritoneal cells are harvested by peritoneal lavage using Ca^++ and Mg^++ free Hanks' balanced salt solution (HBSS). The peritoneal exudate is centrifuged at 400 g for 10 minutes. After centrifugation, the lavaged fluid is removed and the cell pellet is resuspended in HBSS containing Ca^++ and Mg^++ and 10 mM L-cysteine at a concentration of 2×10^7 cells/ml. To 1 ml portions of cell suspension, test drugs or vehicle are added and incubated at 37° C. for 10 minutes. Following this preincubation, the calcium ionophore (10 μM), A23187, is added together with 0.5 μCi[^14 C]arachidonic acid and further incubated for 10 minutes. The reaction is stopped by the addition of ice cold water (3 ml) and acidifying to pH 3.5. Lipoxygenase products are then extracted twice into diethyl ether. The pooled ether extracts are evaporated to dryness under nitrogen and the residue is redissolved in a small volume of methanol and spotted on aluminum backed pre-coated thin layer chromatographic plates. The samples are then co-chromatographed with authentic reference 5-HETE, 12-HETE and 5,12-diHETE in the solvent system--hexane:ether:acetic acid (50:50:3). After chromatography, the areas associated with 5-HETE and 5,12-diHETE standards are identified by autoradiography, cut out and quantitated by liquid scintillation.
Results are expressed as % inhibition of [^14 C]5-HETE and [^14 C]LTB4 (5,12-HETE) synthesis. [formula]
Testing compounds of the invention in this assay and using the antioxidant 3-amino-1-[m-(trifluoromethyl)phenyl]-2-pyrazoline (BW755C) as a standard, the following results are obtained.

[2] = test system: LTD4 induced bronchospasm; experiment: in vivo inhibition of bronchospasm induced in guinea pigs by exogenously administered leukotriene LTD4; design: species or system guinea pig (male Hartley strain); settings: guinea pig, 50 mg/kg intraduodenal, 10 minutes before induction
Method: The assay of this Example measures the in vivo ability of the compounds of the invention to inhibit the bronchospasm induced in guinea pigs by the exogenously administered leukotrienes C4 and/or D4. This assay is essentially a measure of the SRS-A antagonist properties of the compounds tested.
This assay is carried out as follows:
Male Hartley strain guinea pigs (350-600 g) are anesthetized with pentobarbital sodium (50 mg/kg, i.p.). The jugular vein is cannulated for injection of drugs and the carotid artery for monitoring blood pressure. The trachea is cannulated for artificial ventilation by a miniature Starling pump and for indirect measurement of respiratory volume changes as described infra. Additional pentobarbital sodium (15 mg/kg, i.v.) is administered to arrest spontaneous respiration. Submaximal bronchoconstrictor responses are established in control animals by varying the dose-levels of leukotriene. Intravenous dose-levels for LTC4 range from 1 to 2 μg/kg and for LTD4 the range is from 0.3 to 1 μg/kg. The aerosol bronchoprovocation dose for LTC4 is generated from 1.6 μM solution and for LTD4 from a 2.0 μM solution.
Test drugs are administered either intravenously, intraduodenally, by aerosol or orally at 1 or 10 minutes before induction of bronchospasm by administration of either LTC4 or LTD4 at the predetermined dose-levels. Aerosols of soluble drugs or leukotrienes are produced in-line for 10 seconds only by actuation of an ultrasonic nebulizer (Monaghan). Aerosolized drug dosage is expressed in terms of solution concentration and by a fixed aerosol exposure time (approximately 10 seconds). Control animals receive saline in place of drug.
Respiratory volume changes are determined by a calibrated piston whose travel is recorded, via a linear transducer, on a Beckman Dynograph recorder. Maximal bronchoconstrictor volume is determined by clamping off the trachea at the end of the experiment. Overflow volumes at 1, 3 and 5 minutes are obtained from the recorded charts.
The overflow volume at 1, 3 and 5 minutes is expressed as a percentage of maximal bronchoconstriction. Combined group values are used from each of these time intervals to determine the inhibitory effect of drugs. [formula] Students t-test for unpaired data is used to determine statistical significance. Dose response curves are generated and ED50 doses are interpolated from the regression lines.
Results for a compound of the invention in this assay, using LTD4 for induction of bronchospasm, is given below: […]

| IC50 ([1]; [14C]5-HETE synthesis, read-out: 50% Inhibitory Concentration (IC50), 5-HETE) [µM] | IC50 ([1]; [14C]LTB4 synthesis, read-out: 50% Inhibitory Concentration (IC50), LTB4) [µM] | Compound | % Inhibition at 100 μm, 5-HETE ([1]; [14C]5-HETE synthesis) [%] | % Inhibition at 100 μm, LTB4 ([1]; [14C]LTB4 synthesis) [%] | % Inhibition Overflow Volume at 1 min. [2] [%] | % Inhibition Overflow Volume at 3 min. [2] [%] | % Inhibition Overflow Volume at 5 min. [2] [%] |
| --- | --- | --- | --- | --- | --- | --- | --- |
| 43 | 30 | NC1=NN(c2cccc(C(F)(F)F)c2)CC1 [BW755C, 3-amino-1-[m-(trifluoromethyl)phenyl]-2-pyrazoline, reference compound] | – | – | – | – | – |
| – | – | COC(=O)C1CC(=O)N(c2cccc(OCc3nc4ccccc4s3)c2)C1 (centres unmarked) [Example 1, N-[3-[(2-Benzthiazolyl)methoxy]phenyl]pyrrolidin-2-on-4-carboxylic acid, methyl ester] | 94.30 | 84.50 | 72 | 66 | 68 |
| – | – | COC(=O)C1CC(=O)N(c2cccc(OCc3nc4ccccc4n3C)c2)C1 (centres unmarked) [Example 2A, N-[3-[(1-methyl-2-benzimidazolyl)methoxy]phenyl]pyrrolidin-2-on-4-carboxylic acid, methyl ester] | 34.60 | 32.30 | 56 | 20 | 18 |
| – | – | COC(=O)C1CC(=O)N(c2cccc(OCc3nc4ccccc4o3)c2)C1 (centres unmarked) [Example 2B, N-[3-[(2-benzoxazolyl)methoxy]phenyl]pyrrolidin-2-on-4-carboxylic acid, methyl ester] | 87.20 | 82.80 | 26 | 12 | 15 |
